Patent US6610333B1, “Feed supplement for arthropods” (Universita Degli Studi di Milano, priority 1998, dated 2003)

Experiments:
[1] = tested on: membrane vesicles purified from the midgut tissue of B. mori larvae; experiment: Uptake of radiolabeled leucine into membrane vesicles from B. mori larval midgut; assay type: biochemical, Bombyx mori; settings: 0.2 mM test substance, 0.1 mM L-leucine, pH 10.8, 7 seconds incubation; None (control) 450 ± 20
Procedure: The effect of different esters and aminoesters was tested in vitro by measuring the uptake of radiolabeled leucine into membrane vesicles purified from the midgut tissue of B. mori larvae.
Uptakes were measured by incubating 10 μl of membrane vesicles and 40 μl of a isosmotic mixture buffered at pH 10.8 and containing 0.1 mM L-leucine, 30 μCi/ml of L-[3H]-leucine as a tracer and 0.2 mM of the substances indicated. Incubations were stopped after 7 seconds by 75-fold dilution in an ice-cold isotonic saline and filtration through cellulose filters (0.2 μm mesh). Filters were then counted for radioactivity in a scintillation counter and data were expressed per mg of membrane proteins. Vesicles were prepared by calcium precipitation and differential centrifugation from Bombyx mori larval midgut according to standard biochemical protocols.

[2] = tested on: Bombyx mori larvae; experiment: Rearing of Bombyx mori larvae on artificial diet supplemented with ester; assay type: in vivo; settings: 130 mg per 1 kg of diet; for Percent of mortality: first three larval instars

| Compound | Leucine uptake [1] | also measured |
| --- | --- | --- |
| CCOC(=O)[C@@H](N)CC(C)C [Leucine ethyl ester] | 2200 ± 75 pmol/7s/mg membrane protein | – |
| COC(=O)[C@@H](N)CC(C)C [Leucine methyl ester, L-leucine methyl ester] | 4500 ± 150 pmol/7s/mg membrane protein | Weight of cocoon shell ([2]; Polyhybrid (28 × 15) × (10 × 14), control 0.32 ± 0.02): 0.46 ± 0.03 g; Weight of cocoon shell ([2]; Race BG35, control 0.25 ± 0.02): 0.31 ± 0.01 g; Percent of mortality ([2]; Polyhybrid (28 × 15) × (10 × 14), control 19): 0%; Percent of mortality ([2]; Race 21 Molucelli, control 30): 20% |
| COC(=O)[C@@H](N)CCSC [Methionine methyl ester, L-methionine methyl ester] | 4000 ± 180 pmol/7s/mg membrane protein | – |
| CCC(C)CC(=O)OC (stereo not shown) [3-methylvaleric methyl ester] | 800 ± 30 pmol/7s/mg membrane protein | – |
| CCCC[C@H](N)C(=O)OC [Norleucine methyl ester] | 3800 ± 100 pmol/7s/mg membrane protein | – |
| COC(=O)CCC(C)C [4-methylvaleric methyl ester] | 2600 ± 80 pmol/7s/mg membrane protein | – |
